Source: US8530455B2 (University of Medicine and Dentistry of New Jersey, priority 2009, dated 2013)

Experiments:
[1] = tested on: human citrated whole blood (CWB); assay: Whole blood clotting time, Sonoclot Coagulation Analyzer; format: cell-based
Procedure: (§1) Human citrated whole blood (CWB) samples were gently inverted several times to ensure homogeneity and stored on ice to prevent protein denaturation. Ten microliters of physiologic saline was added to 490 μl of CWB (control), gently mixed, and incubated at 37° C. for 10 minutes. Coagulation was initiated by transferring 300 μl of blood sample to a cuvette containing 32 μl of 0.1 M CaCl2. After gently mixing the sample and ensuring no air bubble formations in the cuvette, the whole blood clotting times were recorded on an Amelung KC4A Micro Coagulation Analyzer (Sigma Diagnostics, St. Louis, Mo., USA), a device that uses the relative displacement of a magnetic bead due to fibrin formation to determine the clotting time. In addition, the Sonoclot Coagulation Analyzer (Sienco, Wheat Ridge, Colo., USA), a miniviscometer that is sensitive to fibrin polymer formation and fibrinolysis, was also employed to determine the whole blood clotting time. Both clinical instruments are FDA approved and used to evaluate blood coagulation processes at 37° C.
(§2) Clotting time values obtained within each study were evaluated by repeated measures analysis of variance (ANOVA) followed by Tukey-Kramer multiple comparison tests. All statistical analyses were assessed using two-sided paired Student t tests and significance was defined as p<0.05.
In the previous experiments, the whole blood clotting times were measured using the Amelung KC4A Micro, an instrument approved by the FDA to measure blood coagulation processes. Another FDA approved instrument used to measure blood coagulation and fibrinolysis is the Sonoclot Coagulation Analyzer.

citrated whole blood = assay: Glucose-accelerated clotting time (Diagnostica Stago ST4 and Sonoclot); format: cell-based, human; details: for Glucose-accelerated clotting time: after 24 hours
Procedure: Citrated whole blood samples were obtained from the University Hospital's clinical laboratory with prior IRB approval. Samples were treated with different concentrations of glucose (6.0 mM, 9.0 mM, and 12.0 mM) to determine if a dose-response relationship existed between the glucose concentration and clotting time. Clotting times were then recorded using a Diagnostica Stago ST4 Coagulation Analyzer. […] The samples were incubated for 10 minutes prior to the addition of glucose (12.0 mM). After 24 hours, clotting times were recorded using a Diagnostica Stago ST4 and Sonoclot Coagulation Analyzer (FIG. 2). Results and Discussion

[2] = tested on: human citrated whole blood (CWB); assay: Whole blood clotting time after recalcification (Amelung KC4A Micro, or instrument not named); format: cell-based
Procedure: Clotting time of whole blood enables the contribution of both the cellular elements (leukocytes, red blood cells, platelets) and plasma (the liquid sustaining the cellular components) to be evaluated. The citrate anticoagulated sample is brought to 37° (body temperature) and calcium ion is added to initiate the coagulation cascade. Many instruments are available to determine the time between calcium addition and the formation of the blood clot (clotting time). The time for this complex phenomenon to occur can be shorter than normal (hypercoagulable), within the normal range, and longer than normal (hypocoagulable state). Some disease states are characterized by hypercoagulable clotting states and include coronary artery disease, some cancer, diabetes, multiple sclerosis, stroke etc. The hypocoagulable states include hemophilia, and patients receiving anticoagulant therapies.
as §1, §2

[3] = tested on: red blood cells in anticoagulated human blood; assay: Erythrocyte Sedimentation Rate (ESR) in vitro; format: cell-based; details: for ESR value: n=13
Text: When anticoagulated blood is allowed to remain undisturbed in a long thin tube, the erythrocytes (red blood cells) begin to settle. The rate these cells settle may be a biomarker of the immune system status of the donor's blood. Many chronic diseases and those which create increased morbidity and mortality show increases (larger distance of settling) in ESR than age-matched healthy individuals. The ESR can also monitor the effects of therapeutics or procedures on the patient.
The ESR is the distance red blood cells settle in anticoagulated blood in one hour (mm/hr). These test results are elevated in many diseases that affect the immune system (infections, arthritis, cancer, heart diseases).

[4] = no refrigeration required; cited from earlier work
plasma = assay: GDL dose response on plasma clotting time; format: biochemical; details: GDL dose response curve in plasma

Molecule: O=C1O[C@H](CO)[C@@H](O)[C@H](O)[C@H]1O [GDL, glucono-delta-lactone]
- Mean Clotting Times ([1]; 11.8 mg GDL per mL CWB, n=16, control 262.63 ± 49.67): 631.75 ± 74.55 s
- Mean Clotting Times ([1]; 0.2 Unit LMWH (dalteparin sodium) plus 11.8 mg GDL per mL CWB, n=16): 844.94 ± 77.99 s
- Mean Clotting Times ([1]; 0.2 Unit UFH plus 11.8 mg GDL per mL CWB, n=16): 852.00 ± 80.72 s
- effect of GDL on clotting time in the presence of excess glucose (FIG. 2) (citrated whole blood; GDL 3 mg/ml and 4 mg/ml, glucose 12.0 mM): prolonging clotting time even in the presence of excess glucose
- Glucose-accelerated clotting time (citrated whole blood; glucose (12.0 mM) plus GDL 3 mg/ml): 243 ± 70 s
- Glucose-accelerated clotting time (citrated whole blood; glucose (12.0 mM) plus GDL 4 mg/ml): 334 ± 107 s
- Mean Clotting Times ([2]; 2 μg GDL per mL CWB, n=8, control 264.38 ± 24.17): 271.13 ± 24.83 s
- mean clotting time ([2]; 2.90 μg GDL/mL CWB, n=4, saline 254.08±27.37): 246.55±28.32
- mean clotting time ([2]; 23.00 μg GDL/mL CWB, n=4): 307.90±16.82
- mean clotting time ([2]; 184.00 μg GDL/mL CWB, n=4): 387.33±52.36
- mean clotting time ([2]; 1.48 mg GDL/mL CWB, n=4): 444.55±92.01
- Mean Clotting Times ([2]; 11.8 mg GDL per mL CWB, n=16, control 252.25 ± 25.05): 618.31 ± 71.81 s
- mean clotting time ([2]; 11.80 mg GDL/mL CWB, n=4): 687.37±51.23
- Mean Clotting Times ([2]; 0.2% TF plus 11.8 mg GDL per mL CWB, n=16): 418.44 ± 80.46 s
- Mean Clotting Times ([2]; 0.2 Unit LMWH (dalteparin sodium) plus 2 μg GDL per mL CWB, n=8): 456.15 ± 47.45 s
- Mean Clotting Times ([2]; 0.2 Unit UFH plus 2 μg GDL per mL CWB, n=8): 572.51 ± 45.94 s
- Mean Clotting Times ([2]; 0.3 Unit LMWH (enoxaparin sodium) plus 2.9 μg GDL per mL CWB, n=4): 240.73 ± 29.58 s
- Mean Clotting Times ([2]; 0.3 Unit LMWH (enoxaparin sodium) plus 10 μg GDL per mL CWB, n=4): 294.50 ± 46.16 s
- Mean Clotting Times ([2]; 0.3 Unit LMWH (enoxaparin sodium) plus 23 μg GDL per mL CWB, n=4): 336.28 ± 51.79 s
- Mean Clotting Times ([2]; 0.3 Unit LMWH (enoxaparin sodium) plus 184 μg GDL per mL CWB, n=4): 381.23 ± 61.83 s
- Mean Clotting Times ([2]; 0.3 Unit LMWH (enoxaparin sodium) plus 1.48 mg GDL per mL CWB, n=4): 442.45 ± 63.38 s
- Mean Clotting Times ([2]; 0.3 Unit LMWH (enoxaparin sodium) plus 11.8 mg GDL per mL CWB, n=4): 542.88 ± 54.17 s
- Mean Clotting Times ([2]; 0.3 Unit UFH plus 2.9 μg GDL per mL CWB, n=5): 415.10 ± 101.63 s
- Mean Clotting Times ([2]; 0.3 Unit UFH plus 10 μg GDL per mL CWB, n=5): 498.94 ± 81.24 s
- Mean Clotting Times ([2]; 0.3 Unit UFH plus 23 μg GDL per mL CWB, n=5): 675.34 ± 129.28 s
- Mean Clotting Times ([2]; 0.3 Unit UFH plus 184 μg GDL per mL CWB, n=5): 825.96 ± 160.74 s
- Mean Clotting Times ([2]; 0.3 Unit UFH plus 1.48 mg GDL per mL CWB, n=5): 926.44 ± 192.03 s
- Mean Clotting Times ([2]; 0.3 Unit UFH plus 11.8 mg GDL per mL CWB, n=5): 1197.89 ± 114.32 s
- mean clotting time ([2]; CWB + GDL, n=9 (GDL 3 mg/ml)): 270 s
- mean clotting time ([2]; CWB + TF + GDL, n=9 (GDL 3 mg/ml)): 134 s
- change of whole blood clotting time over GDL concentration range ([2]; GDL 0.016 mM-66.24 mM): increased about three fold
- clotting time versus control ([2]; GDL 3 mg/ml incubated in blood with bacterial endotoxin): significantly (p≦0.05) increase the clotting time
- mean clotting time ([2]; GDL 4 mg/ml, after four days in the refrigerator (4°), control 177±17): 342 ± 32 s
- mean clotting time ([2]; GDL 4 mg/ml, day 1, n=10, control 250±16): 432 ± 16 s
- clotting time ([2]; Study III: 60 ng/ml histamine, 3 mg/ml GDL, n=8): 305 ± 30 s
- clotting time ([2]; Study III: 60 ng/ml histamine, 4 mg/ml GDL, n=8): 325 ± 53 s
- clotting time ([2]; Study IV: 1 μg/ml histamine added first, 1 mg/ml GDL, n=8): 297 ± 113 s
- clotting time ([2]; Study IV: 1 μg/ml histamine added first, 2 mg/ml GDL, n=8): 304 ± 121 s
- clotting time ([2]; blood containing protease 35 μg/ml plus GDL 4 mg/ml): 154 ± 55 s
- clotting time ([2]; blood exposed to tissue factor plus GDL 3 mg/ml, TF alone 101): 134 s
- anticoagulant effect ([2]; concentrations greater than 184 μg GDL per mL of blood, n=4, p<0.05): potent anticoagulant
- clotting time ([2]; trypsin-treated blood plus GDL 6 mg/ml, n=4): 83 ± 19 s
- ESR value ([3]; 0.1 mg/ml GDL, control 20±13): 18±14 mm/hr
- ESR value ([3]; 3.0 mg/ml GDL): 16±12 mm/hr
- ESR value ([3]; 6.0 mg/ml GDL): 15±12 mm/hr
- ESR ([3]; GDL 1 mg/ml alone): 9.6 mm
- Methylcellulose (MC)-accelerated ESR ([3]; MC 0.1% plus GDL 1 mg/ml, N=8, p<0.05): 34.6 mm
- ESR ([3]; MC + GDL (MC 0.1 mg/ml, GDL 1 mg/ml)): 30.1 mm
- stability at room temperature [4]: not susceptible to degradation at room temperatures
- anticoagulant effect in plasma (plasma): a similar anticoagulant effect was observed

Molecule: NCCc1c[nH]cn1 [histamine, reference compound]
- clotting time ([2]; Study III: 60 ng/ml histamine, 0 mg/ml GDL, n=8, control 264±38): 220 ± 39 s
- clotting time ([2]; Study IV: 1 μg/ml histamine, 0 mg/ml GDL, n=8, control 306±108): 253 ± 136 s
- clotting time ([2]; histamine 20 ng/ml, n=8, control 264±80): 257 ± 105 s
- clotting time ([2]; histamine 40 ng/ml, n=8): 240 ± 42 s
- clotting time ([2]; histamine 60 ng/ml, n=8): 235 ± 73 s
- clotting time ([2]; histamine 20 μg/ml, 10 minutes at 37°, n=9, control 300±72): 252 ± 61 s
- clotting time ([2]; histamine 40 μg/ml, 10 minutes at 37°, n=9): 230 ± 49 s
- clotting time ([2]; histamine 60 μg/ml, 10 minutes at 37°, n=9): 205 ± 71 s

Molecule: Protamine sulfate [PS, reference compound]
- Mean Clotting Times ([2]; 2 μg PS per mL CWB, n=8): 294.26 ± 22.92 s
- Mean Clotting Times ([2]; 0.2 Unit LMWH (dalteparin sodium) plus 2 μg PS per mL CWB, n=8): 433.96 ± 56.96 s
- Mean Clotting Times ([2]; 0.2 Unit UFH plus 2 μg PS per mL CWB, n=8): 464.71 ± 42.83 s

Molecule: trypsin [reference compound]
- clotting time ([2]; trypsin-treated blood, control 356±47): 49 ± 14 s

Molecule: unfractionated heparin sodium [UFH, reference compound]
- Mean Clotting Times ([1]; 0.2 Unit UFH per mL CWB, n=16): 677.25 ± 55.33 s
- Mean Clotting Times ([2]; 0.2 Unit UFH per mL CWB, n=8): 648.54 ± 55.31 s
- Mean Clotting Times ([2]; 0.3 Unit UFH per mL CWB, n=5, control 246.56 ± 36.06): 507.52 ± 85.26 s

B1: TF: Tissue Factor, the initiator of the extrinsic clotting cascade (protein, UniProt P13726 33-295, looked up)
Tissue factor: SGTTNTVAAYNLTWKSTNFKTILEWEPKPVNQVYTVQISTKSGDWKSKCFYTTDTECDLTDEIVKDVKQTYLARVFSYPAGNVESTGSAGEPLYENSPEFTPYLETNLGQPTIQSFEQVGTKVNVTVEDERTLVRRNNTFLSLRDVFGKDLIYTLYYWKSSSSGKKTAKTNTNEFLIDVDKGENYCFSVQAVIPSRTVNRKSTDSPVECMGQEKGEFREIFYIIGAVVFVVIILVIILAISLHKCRKAGVGQSWKENSPLNVS
- Mean Clotting Times ([2]; 0.2% TF, n=16): 100.13 ± 23.10 s
